Bioavailability data for one molecule are collected here from ChEMBL document CHEMBL2046354, “Identification of spirocyclic piperidine-azetidine inverse agonists of the ghrelin receptor” (Bioorg Med Chem Lett, 2012).

This series is described as follows: Oral bioavailability in Sprague-Dawley rat at 30 mg/kg. The class given is ADME, organism-based. Conditions: in vivo.

In the case of `Cc1cn2cc(CC(=O)N3CCC4(CC3)CN(Cc3ccc(-n5nccn5)cc3Cl)C4)nc2s1`, the bioavailability (usually the share of a dose that reaches the circulation, judged against a reference dose that is usually intravenous) came to 43%.
